Measured values taken from patent publication US12180170B1, “2-(5-(3-fluorophenyl)-4-phenyl-4H-1,2,4-triazol-3-ylthio)acetic acid as an antimicrobial compound” (KING FAISAL UNIVERSITY, priority 2023, dated 2024).

Assays:
Assay type in all cases: cell-based
Aspergillus flavus = test: Agar plate disc-diffusion, antifungal inhibition zone; details: Sabouraud's dextrose agar, 37° C., 72 h, DMSO control zone subtracted
Procedure: (§1) The agar plate disc-diffusion method was applied. […] The discs were then placed onto the surface of agar plates (nutrient agar for bacteria and Sabouraud's dextrose agar for fungi) seeded with the test organism. Each plate contained 15 mL of the agar medium, previously seeded with 0.2 mL of the broth culture of each organism pregrown for 18 h. The plates were incubated at 37° C. for 48 h, and 72 h for fungi. The inhibition zones was measured in mm. Discs impregnated with DMSO were used as a control, and its inhibition zone was subtracted from the tested compound actual inhibition zone.

[1] = system: Chrysosporium keratinophilum; test: as above; details: Sabouraud's dextrose agar, 37° C., 72 h, DMSO control zone subtracted
Procedure: as §1

Escherichia coli = test: Agar plate disc-diffusion, antibacterial inhibition zone; details: nutrient agar, 37° C., 48 h, DMSO control zone subtracted
Procedure: as §1

Staphylococcus aureus = test: as above; details: nutrient agar, 37° C., 48 h, DMSO control zone subtracted
Procedure: as §1

Bacillus cereus = test: as above; details: nutrient agar, 37° C., 48 h, DMSO control zone subtracted
Procedure: as §1

Pseudomonas aeruginosa = test: as above; details: nutrient agar, 37° C., 48 h, DMSO control zone subtracted
Procedure: as §1

[2] = A = concentration of comp. = 10,000 μL
[3] = B = concentration of comp. = 30,000 μL
[4] = C = concentration of comp. = 50,000 μL

O=C(O)CSc1nnc(-c2cccc(F)c2)n1-c1ccccc1 [III, 2-(5-(3-fluorophenyl)-4-phenyl-4H-1,2,4-triazol-3-ylthio)acetic acid]
inhibition zone, Aspergillus flavus, A (Aspergillus flavus; [2]): 20 mm
inhibition zone, Aspergillus flavus, B (Aspergillus flavus; [3]): 27 mm
inhibition zone, Aspergillus flavus, C (Aspergillus flavus; [4]): 36 mm
inhibition zone, Chrysosporium keratinophilum, A [1, 2]: 24 mm
inhibition zone, Chrysosporium keratinophilum, B [1, 3]: 27 mm
inhibition zone, Chrysosporium keratinophilum, C [1, 4]: 44 mm
inhibition zone, Escherichia coli, A (Escherichia coli; A =): 22 mm
inhibition zone, Escherichia coli, B (Escherichia coli; [3]): 30 mm
inhibition zone, Escherichia coli, C (Escherichia coli; [4]): 49 mm
inhibition zone, Staphylococcus aureus, A (Staphylococcus aureus; [2]): 15 mm
inhibition zone, Staphylococcus aureus, B (Staphylococcus aureus; [3]): 20 mm
inhibition zone, Staphylococcus aureus, C (Staphylococcus aureus; [4]): 24 mm
inhibition zone, Bacillus Cereus, A (Bacillus cereus; [2]): 23 mm
inhibition zone, Bacillus Cereus, B (Bacillus cereus; [3]): 27 mm
inhibition zone, Bacillus Cereus, C (Bacillus cereus; [4]): 40 mm
inhibition zone, Pseudomonas aeruginosa, A (Pseudomonas aeruginosa; [2]): 25 mm
inhibition zone, Pseudomonas aeruginosa, B (Pseudomonas aeruginosa; [3]): 27 mm
inhibition zone, Pseudomonas aeruginosa, C (Pseudomonas aeruginosa; [4]): 46 mm
